These results are taken from ChEMBL document CHEMBL4311942, “Design of Trp-Rich Dodecapeptides with Broad-Spectrum Antimicrobial Potency and Membrane-Disruptive Mechanism” (J Med Chem, 2019).

In test [1] the test system is Staphylococcus aureus. As to the kind of experiment: Antibacterial activity against Staphylococcus aureus ATCC 25923 incubated for 18 to 24 hrs by broth microdilution method. In kind it is functional.
For test [2], the system named is Staphylococcus aureus. As to the kind of experiment: Antibacterial activity against Staphylococcus aureus ATCC 29213 incubated for 18 to 24 hrs by broth microdilution method. In kind it is functional.
For a further test, the system named is Salmonella typhimurium. As to the kind of experiment: Antibacterial activity against Salmonella enterica serovar typhimurium C77-31 incubated for 18 to 24 hrs by broth microdilution method. The class given is functional, Salmonella enterica subsp. enterica serovar Typhimurium.
Test [3] concerns Escherichia coli. Put plainly: Antibacterial activity against Escherichia coli UB1005 incubated for 18 to 24 hrs by broth microdilution method. The class given is functional.
Test [4] concerns Escherichia coli. As to the kind of experiment: Antibacterial activity against Escherichia coli ATCC 25922 incubated for 18 to 24 hrs by broth microdilution method. In kind it is functional.
Test [5] has as its system Staphylococcus epidermidis. As to the kind of experiment: Antibacterial activity against Staphylococcus epidermidis ATCC 12228 incubated for 18 to 24 hrs by broth microdilution method. In kind it is functional.
Test [6] deals with Escherichia coli. Put plainly: Antibacterial activity against Escherichia coli 20411 clinical isolate incubated for 18 to 24 hrs by broth microdilution method. The class given is functional.
Test [7] relates to Acinetobacter baumannii. Put plainly: Antibacterial activity against Acinetobacter baumannii AB1901 clinical isolate incubated for 18 to 24 hrs by broth microdilution method. In kind it is functional.
Test [8] deals with Acinetobacter baumannii. Put plainly: Antibacterial activity against Acinetobacter baumannii AB1902 clinical isolate incubated for 18 to 24 hrs by broth microdilution method. In kind it is functional.
The next test concerns Pseudomonas aeruginosa. As to the kind of experiment: Antibacterial activity against Pseudomonas aeruginosa 25349 clinical isolate incubated for 18 to 24 hrs by broth microdilution method. The class given is functional.
In test [9] the test system is Staphylococcus aureus. Put plainly: Antibacterial activity against Staphylococcus aureus 11011 incubated for 18 to 24 hrs by broth microdilution method. The class given is functional.
Test [10] deals with Escherichia coli. Put plainly: Antibacterial activity against ciprofloxacin-resistant Escherichia coli ATCC 25922 incubated for 18 to 24 hrs. In kind it is functional.
Test [11] in a line: Resistance index, ratio of MIC for antibacterial activity against ciprofloxacin-resistant Escherichia coli to MIC for Escherichia coli ATCC 25922 incubated for 18 to 24 hrs by broth microdilution method. In kind it is functional.
Another test deals with Lipopolysaccharide (LPS). As to the kind of experiment: Displacement of BODIPY-TR-cadaverine from Escherichia coli O111:B4 LPS assessed as increase in fluorescence intensity at 64 uM by spectrofluorophotometric method relative to control.
Where [12] appears, read: Salmonella enterica subsp. enterica serovar Typhimurium.

In brackets after ≈: the same amount, converted by molar mass.

Turning to `CC(C)(O/N=C(\C(=O)N[C@@H]1C(=O)N2C(C(=O)[O-])=C(C[n+]3ccccc3)CS[C@H]12)c1csc(N)n1)C(=O)O` [CEFTAZIDIME], the MIC is 32 µM (≈ 17.5 µg/mL) against Staphylococcus aureus [1]; 16 µM (≈ 8.75 µg/mL) against Staphylococcus aureus [2]; 0.5 µM (≈ 0.273 µg/mL) against Salmonella typhimurium; 0.25 µM (≈ 0.137 µg/mL) with Escherichia coli [3]; 0.5 µM (≈ 0.273 µg/mL) with Escherichia coli [4]; 16 µM (≈ 8.75 µg/mL) in test [5]. In addition, the MIC in the test on Escherichia coli [6] was 0.25 µM (≈ 0.137 µg/mL); against Acinetobacter baumannii [7], over 128 µM; with Acinetobacter baumannii [8], over 128 µM; against Pseudomonas aeruginosa, 32 µM (≈ 17.5 µg/mL); against Staphylococcus aureus [9], 16 µM (≈ 8.75 µg/mL); in the test on Escherichia coli [10], 16 µM (≈ 8.75 µg/mL). Besides, the Ratio in test [11] was 32.

For `O=C(O)c1cn(C2CC2)c2cc(N3CCNCC3)c(F)cc2c1=O` [CIPROFLOXACIN], the MIC was determined as 0.5 µM (≈ 0.166 µg/mL) with Staphylococcus aureus [1]; 0.5 µM (≈ 0.166 µg/mL) against Staphylococcus aureus [2]; 4 µM (≈ 1.33 µg/mL) in the test with Salmonella typhimurium; 2 µM (≈ 0.663 µg/mL) against Escherichia coli [3]; 2 µM (≈ 0.663 µg/mL) against Escherichia coli [4]; 0.5 µM (≈ 0.166 µg/mL) in test [5]. The MIC in the test on Staphylococcus aureus [9] is 0.5 µM (≈ 0.166 µg/mL); against Escherichia coli [10], 256 µM (≈ 84.8 µg/mL). For the same molecule, the Activity in the test on Lipopolysaccharide (LPS) was 1.6%.

Consider `CN(C)c1ccc(O)c2c1C[C@H]1C[C@H]3[C@H](N(C)C)C(O)=C(C(N)=O)C(=O)[C@@]3(O)C(O)=C1C2=O` [MINOCYCLINE], for which the minimal inhibitory concentration (MIC) turned out to be 0.25 µM (≈ 0.114 µg/mL) with Staphylococcus aureus [1]; 0.25 µM (≈ 0.114 µg/mL) with Staphylococcus aureus [2]; 8 µM (≈ 3.66 µg/mL) against Salmonella typhimurium; 4 µM (≈ 1.83 µg/mL) in the test with Escherichia coli [3]; 1 µM (≈ 0.457 µg/mL) in the test on Escherichia coli [4]; 0.25 µM (≈ 0.114 µg/mL) in [5]. Also, the MIC worked out at 2 µM (≈ 0.915 µg/mL) against Escherichia coli [6]; 0.25 µM (≈ 0.114 µg/mL) in the test on Acinetobacter baumannii [7]; 0.25 µM (≈ 0.114 µg/mL) against Acinetobacter baumannii [8]; 8 µM (≈ 3.66 µg/mL) against Pseudomonas aeruginosa; 0.25 µM (≈ 0.114 µg/mL) in the test with Staphylococcus aureus [9]; 64 µM (≈ 29.3 µg/mL) against Escherichia coli [10]. Moreover, the Ratio in test [11] was 64.

For `CC1COc2c(N3CCN(C)CC3)c(F)cc3c(=O)c(C(=O)O)cn1c23` (centres undefined) [OFLOXACIN], the MIC was 1 µM (≈ 0.361 µg/mL) against Staphylococcus aureus [1]; 0.5 µM (≈ 0.181 µg/mL) against Staphylococcus aureus [2]; 0.25 µM (≈ 0.0903 µg/mL) in the test with Salmonella typhimurium; 0.5 µM (≈ 0.181 µg/mL) against Escherichia coli [3]; 0.125 µM (≈ 0.0452 µg/mL) against Escherichia coli [4]; 0.5 µM (≈ 0.181 µg/mL) in test [5]. Besides, the MIC against Escherichia coli [6] is 0.125 µM (≈ 0.0452 µg/mL); with Acinetobacter baumannii [7], 32 µM (≈ 11.6 µg/mL); against Acinetobacter baumannii [8], 32 µM (≈ 11.6 µg/mL); in the test on Pseudomonas aeruginosa, 4 µM (≈ 1.45 µg/mL); against Staphylococcus aureus [9], 1 µM (≈ 0.361 µg/mL); against Escherichia coli [10], 0.5 µM (≈ 0.181 µg/mL). Besides, in test [11], the Ratio was 4.

COLISTIN: the MIC amounted to 128 µM against Staphylococcus aureus [1]; 128 µM with Staphylococcus aureus [2]; 0.5 µM with Salmonella typhimurium (setting [12]); 0.5 µM with Escherichia coli [3]; 0.5 µM in the test on Escherichia coli [4]; 64 µM in [5]. The MIC in the test with Escherichia coli [6] amounted to 0.5 µM; against Acinetobacter baumannii [7], 1 µM; in the test on Acinetobacter baumannii [8] it was 0.5 µM; in the test on Pseudomonas aeruginosa, 0.5 µM; in the test on Staphylococcus aureus [9], 32 µM; against Escherichia coli [10], 0.5 µM. In test [11], the Ratio was 1.

As to GENTAMICIN, the MIC amounted to 0.25 µM in the test with Staphylococcus aureus [1]; 0.5 µM against Staphylococcus aureus [2]; 8 µM against Salmonella typhimurium (setting [12]); 4 µM in the test on Escherichia coli [3]; 4 µM in the test on Escherichia coli [4]; 0.5 µM in test [5]. Also, the MIC with Escherichia coli [6] is 1 µM; in the test with Acinetobacter baumannii [7], over 128 µM; in the test on Acinetobacter baumannii [8], over 128 µM; with Pseudomonas aeruginosa, 2 µM; against Staphylococcus aureus [9], 1 µM; in the test with Escherichia coli [10], 4 µM. Also, the Ratio in test [11] amounted to 1.
